From ChEMBL document CHEMBL3507680, “University of Dundee, Gates Library screen for HepG2 cell viability”

Test: Human HepG2 cell viability assay in 384 well format
Type: toxicity, cell-based
Set-up: dose 125 nL, time 70.5 hour; cytotoxicity at 70.5 h: concentration not given beside the values
Conditions: HepG2 cells, read-out: Inhibition

SMILES | cytotoxicity at 70.5 h [%]
CN1C[C@@H](NC(=O)CC(C)(C)C)C[C@H]1c1nc(-c2cnccn2)no1 | -0.594
CCN1CCO[C@@H]2CN(S(=O)(=O)c3cccs3)CC[C@@H]2C1 | -6.19
CC(=O)N(Cc1noc(C2CC2)n1)C1CCN(CC2CCOCC2)C1 (stereo not given) | 22.1
CN1CCCN(C(=O)c2cc(CN(C)CCc3ccccc3)on2)CC1 | -10.4
COc1cccc(C(=O)NC(CC(=O)O)c2cccs2)c1OC (stereo not given) | -9.47
Cc1cccc(-c2nc(CN3CCCCC3Cn3cncn3)no2)c1 (stereo not given) | -4.62
O=C(NC[C@H]1OC[C@@H](NCc2ccccc2F)[C@@H]1O)c1ccc(F)cc1 | -3.67
Cc1nc(CN2CC[C@H]3[C@H]2CCN3c2ncccn2)cs1 | -5.71
COCC(C)N(C)C(=O)NC1CCN(c2ncccn2)CC1 (stereo not given) | 7.61
Cc1nc(CN2C(=O)CC3(CCN(C(N)=O)CC3)c3ccccc32)cs1 | -2.82
NC(=O)CC1CCN(c2cncc(OCc3ccccc3)n2)CC1 | -5.14
O=C(NC1CCC1)C1=NOC2(CCN(Cc3ccc(F)cc3)C2)C1 (stereo not given) | 14.1
CNc1ccnc(N2CCCC(C(=O)c3ccccn3)C2)n1 (stereo not given) | 24.1
CC(C)c1nc2c(n1C)CCN(CC(=O)Nc1nncs1)C2 | 6.98
COC(C)C(=O)N(CC(N)=O)Cc1cccc(Oc2ccccc2)c1 (stereo not given) | -2.39
O=C1CC(c2cccnc2)c2c(sc3c2CCCC3)N1 (stereo not given) | -3.62
O=C(NC1CC1)C1=CC2(CCN(CC3CC3)CC2)c2ccccc21 | -4.67
CCOc1ccccc1CCC(=O)Nc1c(C)nn(C)c1C | 14.5
Cc1ccc(C)c(NC(=O)c2n[nH]c(-n3cnnc3)n2)c1 | -0.779
CCc1cnc(C)nc1N1CCN(Cc2ccc(-c3cc[nH]n3)o2)CC1 | 9.84
NCC(CO)Cc1ccc(C(F)(F)F)cc1 (stereo not given) | 4.66
COc1ccc2c(c1)CN(Cc1ccco1)C(=O)CCN2CC(C)(C)O | 1.21
Cc1ccoc1C(=O)NCCS(=O)(=O)N1CCSCC1 | 5.89

SMILES | cytotoxicity at 70.5 h [%]
CCC1CNCc2cc3c(C)ccc(C)c3nc2O1 (stereo not given) | -1.78
O=C(c1ccc(-c2ccc(O)nc2)s1)N1CCSCC1 | -14
CCOCCCC(=O)N1CCN(C(=O)Cc2cccc(OC)c2)CC1 | -5.09
O=C(Cc1cccc(F)c1)NCCCNC(=O)c1cccc(O)c1 | -2.95
Cc1csc(C(C)(C)NCCOc2ccc(CC#N)cc2)n1 | -0.219
Cc1ncc2c(n1)CN(Cc1nc(-c3ccco3)oc1C)CC2 | -10.5
O=C(NCCc1ccn(-c2ccccc2)n1)N1CCC1 | -2.97
CC1Oc2ccc(S(=O)(=O)NCCCn3ccnc3)cc2NC1=O (stereo not given) | -3.81
CN(C)C(=O)c1cccnc1SCc1ccccc1C#N | -4.31
CNc1cc(N2CCCC2CNCc2cnc(C)cn2)ncn1 (stereo not given) | -8.09
COC(=O)CCCC(=O)N1CCC(CO)(CCc2ccccc2)CC1 | -11.9
CC(C)CN1C(=O)C2(CCCC2)NC1c1c[nH]nc1-c1cccnc1 (stereo not given) | -3.57
CCN1CC2(CCCCN2C(=O)C2CCCCC2)CC1=O (stereo not given) | -7.76
O=C(O)c1ccc(CCNC(=O)C2(c3ccccc3)CC2)cc1 | 12.5
COCCNC(=O)[C@@H]1C[C@@H]2CCN(c3ncccn3)C[C@H]2O1 | 24.2
O=C1CCCN1CCC1CCCCN1C(=O)c1ccc(SCCO)cc1 (stereo not given) | -6.58
CC(NC(=O)COc1ccc(Cl)cc1Cl)c1nncn1C(C)C (stereo not given) | -3.07
CN(C)S(=O)(=O)N1CC[C@]2(C[C@@H](OCC3CC3)CO2)C1 | 0.733
CN(C)c1cccc(C2CCCN2Cc2nnnn2C2CC2)c1 (stereo not given) | -1.65
OCc1ccc(-c2c(-c3ccccc3)ncn2CCN2CCOCC2)o1 | 16.6
CC(C)c1nnc2n1CC(CNCc1nnc(C(C)(C)C)o1)CC2 (stereo not given) | 9.48
Cc1cc(C(=O)N2CCOC(c3nc(C)n[nH]3)C2)[nH]n1 (stereo not given) | 3.96
Cn1cccc1CN1CCC2(CCCN(C(=O)c3cccnc3)C2)CC1 | -2.44

SMILES | cytotoxicity at 70.5 h [%]
NC(=O)C1CCN(C(=O)NC2CCc3cc(Cl)ccc32)CC1 (stereo not given) | -7.29
Cc1n[nH]c(C)c1CCC(=O)N1CCc2c(nc[nH]c2=O)C1 | -22.4
Cc1nc(CC2CCCN(Cc3nc(N)c4ccccc4n3)C2)no1 (stereo not given) | -7.12
Cc1nccn1CCC1CCCCN1Cc1cccc(CCN)c1 (stereo not given) | -1.82
CCn1nc(CC(C)C)cc1C(=O)NCCCOC | -0.898
Cc1c(-c2cnn(C)c2)nc(N)c(C#N)c1-c1ccc(CO)o1 | 2.44
Cn1cc(C(=O)Nc2cccc(-c3ccc4c(c3)CCO4)n2)ccc1=O | 12
Cn1nc(CN2CCCCC2)c2c1CN(Cc1ccoc1)C2 | -7.22
CCCC1(CO)CCCN(c2ncnc3c2c(C)nn3C)C1 (stereo not given) | -3.54
Cn1ccnc1CNC(=O)CCc1cccc(F)c1 | -9.01
CCOc1cc(C(=O)N2CC=C(c3ccc(O)cc3)CC2)ccn1 | -14.3
Cc1cc(CN2CCC(CNC(=O)c3ccc(O)c(Cl)c3)C2)[nH]n1 (stereo not given) | -4.96
COc1ccc(S(=O)(=O)N2CCN(C)c3ncccc3C2)cc1 | -5.97
COc1ccc(CCC(=O)N2CCCC2Cn2cc(C)cn2)cc1F (stereo not given) | -6.64
Cc1[nH]c2c(F)cccc2c1CC(=O)NCc1csc(N(C)C)n1 | 39.7
Cc1ccoc1C(=O)N1CC[C@H]2[C@@H]1CCC(=O)N2c1cccnc1 | -14.8
CCc1ccc(C(COC)NC(=O)c2ccc(C(N)=O)cc2)o1 (stereo not given) | 7.28
CC(C)Nc1nc(N2CCOCC2)nc2c1CN(CC(=O)N(C)C)CC2 | 26.3
CCc1nnc2n1CCN(C(=O)c1ccc3c(c1)[nH]c(=O)n3C)C2 | -2.36
CC(C)c1nn(C)c(N(C)C)c1CNCC(O)c1ccccc1F (stereo not given) | 17.9
Cc1nc(CN2CCN(Cc3ccoc3)Cc3cccnc32)cs1 | 32.4
COCCC1(CO)CCCN(Cc2ccc(C(F)(F)F)cc2)C1 (stereo not given) | -4.92
O=C1N(CC2CC2)CCC12CCN(Cc1ccoc1)CC2 | -8.87

SMILES | cytotoxicity at 70.5 h [%]
CCN1CCN(CCNC(=O)c2ccn(-c3ccc(F)cc3)n2)CC1 | -3.79
Cc1cc(C)nc(N2CCCC(c3cccc(-n4ccnc4)n3)C2)n1 (stereo not given) | -5.86
Cc1ccccc1N(CC(=O)NCCc1nnc2n1CCC2)S(C)(=O)=O | -4.09
COc1ccc(-c2n[nH]cc2CN2CCSCC2)c(OC)c1 | -7.44
CCc1cc(NCCC(F)(F)F)nc(N2CCOCC2)n1 | -7.87
CC(C)CCN1N=C(C(=O)N2CCCCCC2)S(=O)(=O)c2ccccc21 | 21.7
Cc1nsc(N2CCN(CC(=O)NCc3cccnc3)CC2)n1 | -0.83
Cc1cc(-c2ccccc2C(=O)O)nc(C2CCCN(C)C2)n1 (stereo not given) | -7.61
Cc1nc(C2CCCN2C(=O)CCCOc2ccccc2C)no1 (stereo not given) | -8.51
CCc1noc(CC)c1CC(=O)N1CCN(C(C#N)C(C)C)CC1 (stereo not given) | -8.63
O=C(NCC1CCOC1)c1csc(Cc2ccccc2)n1 (stereo not given) | 19.4
Cc1ccsc1CN(C)Cc1ncccc1C(=O)O | -2.01
CSc1ccc(C(=O)C2CCCN(C(=O)Cn3cnnn3)C2)cc1 (stereo not given) | -6.73
CC(C(=O)N1CCC(Nc2cccnn2)CC1)n1cccn1 (stereo not given) | 20.4
CN1CCN(CC(C)(C)C)CC1CCO (stereo not given) | -3.64
Nc1cc2c(nn1)CCN(C(=O)CCCC1CCCCC1)C2 | -13.1
O=C(c1ccc(F)cc1Cl)N1CCn2c(nnc2C(F)(F)F)C1 | 1.4
CN(Cc1noc(C2CC2)n1)C1CCN(Cc2nnc(C3CC3)o2)C1 (stereo not given) | -3.86
CN1CCOCC12CCN(c1nncs1)CC2 | -2.11
Cc1nc(NC(=O)NCc2cccnc2NCCN(C)C)sc1C | -2.85
CC1CCN(S(=O)(=O)c2cccn(CC(=O)N3CCOCC3)c2=O)CC1 | -16
COc1cc2ncn(CC(=O)NCCCN(C)C)c(=O)c2cc1OC | -6.49
c1cc2c(cc1CN(Cc1nc(C3CC3)no1)C1CCCC1)OCO2 | 6.65

SMILES | cytotoxicity at 70.5 h [%]
Cc1cnn(C2CN(CC(O)COc3ccc(C#N)cc3)C2)c1 (stereo not given) | -3.3
CCc1nc(NC(=O)NCCc2scnc2C)nn1C | 16.5
Cn1ccnc1CN1CCN(c2ccc(C#N)cc2F)CC1 | -7.5
Cc1cc(CNC(=O)NCCCC(=O)N2CCc3ccccc32)no1 | -2.16
CCCc1cc(NCc2ccc(CO)cc2)n2nccc2n1 | 1.98
O=C(C1CC=CC1)N1CCC2(CC1)OCCO2 | -4.94
Cc1cc(-c2cccc(-c3ccn(CCCO)n3)c2)nc(N(C)C)n1 | -5.08
Cc1cnn(CC2CN(CC(=O)Nc3nccs3)CCO2)c1 (stereo not given) | -2.45
NC(=O)C1CCN(C(=O)Cc2ccc(Cl)c(Cl)c2)CC1 | -2.27
CN1CCOCC12CCN(c1ccc(C#N)cc1)CC2 | -5.69
COCCN1CCC2(CC1)CN(C(=O)C1CC1)c1ccc(F)cc12 | -3.73
COCCNC(=O)c1nnn(Cc2ccccc2)c1OC | -2.5
O=C(Cc1cccs1)NCC1(O)CCc2ccccc2C1 (stereo not given) | -7.27
Cc1cc(C)n(CC2CN(Cc3ccc(C(N)=O)cc3)CCO2)n1 (stereo not given) | -4.76
CCC(CC)c1cc(CNC(=O)N2CCC(n3cncn3)CC2)on1 | -1.7
CCCNC(=O)CNc1cc(C(=O)N2CCSCC2)ccc1C | -6
Cc1ccc(N2CCCC(NCc3cccc4c3OCCO4)C2)nn1 (stereo not given) | -4.41
Cc1ccccc1CSc1nc(N)cc(N2CCCC(O)C2)n1 (stereo not given) | 0.482
O=C1CC(c2ccccc2C(F)(F)F)c2sc(N3CCOCC3)nc2N1 (stereo not given) | -13.5
Cc1csc2c(C3CCCN(C(=O)CCCn4cncn4)C3)nc(C)n12 (stereo not given) | 2.61
CCc1noc(CN(C)Cc2cc(Br)ccc2OC)n1 | -5.46
O=C(CNC(=O)N1CCc2c([nH]c3ccc(Cl)cc23)C1)NCCCO | -18.9
Cc1cc(C)c2nc(CN3CCOC(CCO)C3)cc(O)c2c1 (stereo not given) | -4.44
